{"source": "patent US20110105509A1", "about": "(Wyeth, LLC, priority 2009, published 2011)", "target": "T1, CRTH2 (Homo sapiens, UniProt Q9Y5Y4)", "T1 construct": "expressed in transfected cells; host or cells: CHO cells", "T1 sequence (Q9Y5Y4 1-395)": "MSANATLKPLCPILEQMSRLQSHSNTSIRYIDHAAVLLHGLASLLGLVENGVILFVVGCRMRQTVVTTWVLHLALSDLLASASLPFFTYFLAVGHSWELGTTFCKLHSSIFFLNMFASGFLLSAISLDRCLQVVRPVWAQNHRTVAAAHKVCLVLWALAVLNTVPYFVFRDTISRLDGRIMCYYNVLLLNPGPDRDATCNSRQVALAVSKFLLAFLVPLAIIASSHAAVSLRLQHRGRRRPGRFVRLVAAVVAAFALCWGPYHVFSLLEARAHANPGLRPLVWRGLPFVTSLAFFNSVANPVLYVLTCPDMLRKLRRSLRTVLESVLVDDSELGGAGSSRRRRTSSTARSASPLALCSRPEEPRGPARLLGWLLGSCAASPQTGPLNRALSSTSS", "assay": "FRET based competitive immunoassay (cAMP) in CRTH2 expressing CHO cells", "type": "cell-based", "conditions": "CRTH2 expressing CHO cells incubated with forskolin and PGD2; Eu3+ cryptate-labeled anti-cAMP and d2-labeled cAMP", "description": "FRET Assay: To evaluate potency compounds were tested in a FRET based competitive immunoassay in which CRTH2 expressing CHO cells were incubated in the presence of forskolin and PGD2 along with Eu3+ cryptate-labeled anti-cAMP and d2-labeled cAMP.", "note": "pIC50: −log10 of the molar value.", "data": [{"molecule": "Cc1c(Cc2ccc(=O)n(CCCC(F)(F)F)n2)c2cc(F)ccc2n1CC(=O)O", "note": "[Example 344, 2-(5-fluoro-2-methyl-3-((6-oxo-1-(4,4,4-trifluorobutyl)-1,6-dihydropyridazin-3-yl)-methyl)-1H-indol-1-yl)acetic acid]", "values": [{"measurement": "pIC50", "value": 7.77}]}, {"molecule": "Cc1c(-c2ccc(=O)n(C)n2)c2cc(F)ccc2n1CC(=O)O", "note": "[Example 159, 2-(5-fluoro-2-methyl-3-(1-methyl-6-oxo-1,6-dihydropyridazin-3-yl)-1H-indol-1-yl)acetic acid]", "values": [{"measurement": "pIC50", "value": 5.60}]}, {"molecule": "Cc1c(-c2ccc(=O)n(Cc3ccccc3)n2)c2cccc(Br)c2n1CC(=O)O", "note": "[Example 246, 2-(3-(1-benzyl-6-oxo-1,6-dihydropyridazin-3-yl)-7-bromo-2-methyl-1H-indol-1-yl)-acetic acid]", "values": [{"measurement": "pIC50", "value": "< 5.70"}]}, {"molecule": "Cc1c(-c2nn(C)c(=O)c3ccccc23)c2cc(Cl)ccc2n1CC(=O)O", "note": "[Example 105, 2-(5-chloro-2-methyl-3-(3-methyl-4-oxo-3,4-dihydrophthalazin-1-yl)-1H-indol-1-yl)-acetic acid]", "values": [{"measurement": "pIC50", "value": 6.92}]}, {"molecule": "Cc1c(-c2ccc(=O)n(Cc3cccc(F)c3F)c2)c2cc(F)ccc2n1CCC(=O)O", "note": "[Example 303, 3-(3-(1-(2,3-difluorobenzyl)-6-oxo-1,6-dihydropyridin-3-yl)-5-fluoro-2-methyl-1H-indol-1-yl)propanoic acid]", "values": [{"measurement": "pIC50", "value": "< 5.70"}]}, {"molecule": "Cc1c(-c2nn(Cc3ccc(Cl)c(F)c3)c(=O)c3ccccc23)c2cc(F)ccc2n1CC(=O)O", "note": "[Example 5, 2-(3-(3-(4-Chloro-3-fluorobenzyl)-4-oxo-3,4-dihydrophthalazin-1-yl)-5-fluoro-2-methyl-1H-indol-1-yl)acetic acid]", "values": [{"measurement": "pIC50", "value": 8.00}]}, {"molecule": "Cc1c(-c2cn(Cc3ccccc3)c(=O)c3c2CCCC3)c2cc(F)ccc2n1CC(=O)O", "note": "[Example 88, 2-(3-(2-benzyl-1-oxo-1,2,5,6,7,8-hexahydroisoquinolin-4-yl)-5-fluoro-2-methyl-1H-indol-1-yl)acetic acid]", "values": [{"measurement": "pIC50", "value": 6.71}]}, {"molecule": "Cc1c(-c2ccc(=O)n(C(C)C)n2)c2cc(F)cc(Cl)c2n1CC(=O)O", "note": "[Example 232, 2-(7-chloro-5-fluoro-3-(1-isopropyl-6-oxo-1,6-dihydropyridazin-3-yl)-2-methyl-1H-indol-1-yl)acetic acid]", "values": [{"measurement": "pIC50", "value": 5.97}]}, {"molecule": "Cc1c(-c2ccc(=O)n(Cc3cccc(F)c3F)c2)c2cc(F)ccc2n1CC(=O)N(C)C", "note": "[Example 300, 2-(3-(1-(2,3-difluorobenzyl)-6-oxo-1,6-dihydropyridin-3-yl)-5-fluoro-2-methyl-1H-indol-1-yl)-N,N-dimethylacetamide]", "values": [{"measurement": "pIC50", "value": "< 5.70"}]}, {"molecule": "Cc1c(-c2ccc(=O)n(Cc3ccccc3F)c2)c2cc(Cl)ccc2n1CC(=O)O", "note": "[Example 290, 2-(5-chloro-3-(1-(2-fluorobenzyl)-6-oxo-1,6-dihydropyridin-3-yl)-2-methyl-1H-indol-1-yl)acetic acid]", "values": [{"measurement": "pIC50", "value": 8.15}]}, {"molecule": "Cc1c(-c2nn(CCOc3ccccc3)c(=O)c3ccccc23)c2cc(F)ccc2n1CC(=O)O", "note": "[Example 222, 2-(5-fluoro-2-methyl-3-(4-oxo-3-(2-phenoxyethyl)-3,4-dihydrophthalazin-1-yl)-1H-indol-1-yl)acetic acid]", "values": [{"measurement": "pIC50", "value": 9.00}]}, {"molecule": "Cc1c(Cc2ccc(=O)n(Cc3ccc(F)cc3F)n2)c2cc(F)ccc2n1CC(=O)NS(C)(=O)=O", "note": "[Example 320, 2-(3-((1-(2,4-difluorobenzyl)-6-oxo-1,6-dihydropyridazin-3-yl)methyl)-5-fluoro-2-methyl-1H-indol-1-yl)-N-(methylsulfonyl)acetamide]", "values": [{"measurement": "pIC50", "value": "< 6.00"}]}, {"molecule": "Cc1c(Cc2ccc(=O)n(Cc3ccc(F)c(F)c3)c2)c2cc(F)ccc2n1CC(=O)NS(C)(=O)=O", "note": "[Example 321, 2-(3-((1-(3,4-difluorobenzyl)-6-oxo-1,6-dihydropyridin-3-yl)methyl)-5-fluoro-2-methyl-1H-indol-1-yl)-N-(methylsulfonyl)acetamide]", "values": [{"measurement": "pIC50", "value": "< 6.00"}]}, {"molecule": "Cc1c(-c2ccc(=O)n(Cc3ccc(F)cc3F)n2)c2cc(F)ccc2n1CC(=O)O", "note": "[Example 71, 2-(3-(1-(2,4-difluorobenzyl)-6-oxo-1,6-dihydropyridazin-3-yl)-5-fluoro-2-methyl-1H-indol-1-yl)acetic acid]", "values": [{"measurement": "pIC50", "value": 7.77}]}, {"molecule": "Cc1c(-c2nn(CC(C)C)c(=O)c3ccccc23)c2cc(F)ccc2n1CC(=O)O", "note": "[Example 327, {5-fluoro-2-methyl-3-[3-(2-methylpropyl)-4-oxo-3,4-dihydrophthalazin-1-yl]-1H-indol-1-yl}acetic acid]", "values": [{"measurement": "pIC50", "value": 7.89}]}, {"molecule": "Cc1c(Cc2ccc(=O)n(Cc3c(F)cccc3F)n2)c2cc(F)ccc2n1CC(=O)O", "note": "[Example 338, (3-{[1-(2,6-difluorobenzyl)-6-oxo-1,6-dihydropyridazin-3-yl]methyl}-5-fluoro-2-methyl-1H-indol-1-yl)acetic acid]", "values": [{"measurement": "pIC50", "value": 8.30}]}, {"molecule": "CC(C)=CCn1nc(-c2c(C)n(CC(=O)O)c3ccc(F)cc23)c2ccccc2c1=O", "note": "[Example 130, 2-(5-fluoro-2-methyl-3-(3-(3-methylbut-2-enyl)-4-oxo-3,4-dihydro-phthalazin-1-yl)-1H-indol-1-yl)acetic acid]", "values": [{"measurement": "pIC50", "value": "< 6.00"}]}, {"molecule": "Cc1c(-c2ccc(=O)n(Cc3cc(F)c(F)cc3F)n2)c2ccccc2n1CC(=O)O", "note": "[Example 187, 2-(2-methyl-3-(6-oxo-1-(2,4,5-trifluorobenzyl)-1,6-dihydropyridazin-3-yl)-1H-indol-1-yl)acetic acid]", "values": [{"measurement": "pIC50", "value": 7.12}]}, {"molecule": "Cc1c(-c2nn(Cc3nc4ccccc4s3)c(=O)c3ccccc23)c2ccccc2n1CC(=O)O", "note": "[Example 167, 2-(3-(3-(benzo[d]thiazol-2-ylmethyl)-4-oxo-3,4-dihydrophthalazin-1-yl)-2-methyl-1H-indol-1-yl)acetic acid]", "values": [{"measurement": "pIC50", "value": 7.85}]}, {"molecule": "Cc1c(-c2ccc(=O)n(Cc3cccc(F)c3F)c2)c2cc(F)ccc2n1[C@@H](C)C(=O)O", "note": "[Example 306a, (S)-2-(3-(1-(2,3-difluorobenzyl)-6-oxo-1,6-dihydropyridin-3-yl)-5-fluoro-2-methyl-1H-indol-1-yl)propanoic acid]", "values": [{"measurement": "pIC50", "value": "< 5.70"}]}, {"molecule": "Cc1c(-c2nn(Cc3ccccc3)c(=O)c3ccccc23)c2cc(S(C)(=O)=O)cc(F)c2n1CC(=O)O", "note": "[Example 15, 2-(3-(3-Benzyl-4-oxo-3,4-dihydrophthalazin-1-yl)-7-fluoro-2-methyl-5-(methylsulfonyl)-1H-indol-1-yl)acetic acid]", "values": [{"measurement": "pIC50", "value": 6.67}]}, {"molecule": "Cc1c(Cc2ccc(=O)n(Cc3c(F)cccc3F)c2)c2ccccc2n1CC(=O)O", "note": "[Example 37, 2-(3-((1-(2,6-Difluorobenzyl)-6-oxo-1,6-dihydropyridin-3-yl)methyl)-2-methyl-1H-indol-1-yl)acetic acid]", "values": [{"measurement": "pIC50", "value": 7.46}]}, {"molecule": "Cc1c(-c2ccc(=O)n(Cc3ccccc3)n2)c2cc(F)ccc2n1C(=O)c1cccnc1", "note": "[Example 262b, 2-benzyl-6-(5-fluoro-2-methyl-1-nicotinoyl-1H-indol-3-yl)pyridazin-3(2H)-one]", "values": [{"measurement": "pIC50", "value": "< 5.00"}]}, {"molecule": "Cc1c(-c2nn(CCC(C)(C)O)c(=O)c3ccccc23)c2cc(F)ccc2n1CC(=O)O", "note": "[Example 132, 2-(5-fluoro-3-(3-(3-hydroxy-3-methylbutyl)-4-oxo-3,4-dihydrophthalazin-1-yl)-2-methyl-1H-indol-1-yl)acetic acid]", "values": [{"measurement": "pIC50", "value": 7.12}]}, {"molecule": "Cc1c(-c2nn(Cc3ccc(S(C)(=O)=O)cc3)c(=O)c3ccccc23)c2ccccc2n1CC(=O)O", "note": "[Example 168, 2-(2-methyl-3-(3-(4-(methylsulfonyl)benzyl)-4-oxo-3,4-dihydrophthalazin-1-yl)-1H-indol-1-yl)acetic acid]", "values": [{"measurement": "pIC50", "value": 7.21}]}]}
